Assay results: patent publication US20240208972A1, “LRRK2 INHIBITORS AND USES THEREOF” (NEURON23, INC., priority 2022, published 2024)

Columns and labels:
[1] = Brain penetration (Kp,uu) in CD-1 mice, with plasma and brain tissue binding by equilibrium dialysis; type: in vivo; conditions: mouse, brain and plasma (unbound), male CD-1 mice, single IV bolus 1 mg/kg
Experimental: The compounds disclosed herein were tested on CD-1 mice for brain penetration (Kp, uu) according to the following procedures.
Nine male CD-1 mice were administered TEST COMPOUND by single intravenous bolus administration at 1 mg/kg. The vehicle used for IV study was 5% DMSO, 5% solutol, 20% PEG300 and 70% water. The detailed dosing and sampling regimens are described in the following tables.
1.0 mg of test compound was accurately weighed into a glass vial, and slowly added with 104 μL of DMSO and vortexed for 1 min. Then 104 μL of solutol was added and vortexed for 1 min. Then 415 μL of PEG300 was added and vortexed for 1 min. Then 1000 μL of water was added and vortexed for 1 min. Finally, 451 μL of water was added and vortexed for 1 min to get a clear solution.
The body weights were in the range from 28.81 to 31.25 g for males on the first dosing day. All animals received a single intravenous bolus administration of TEST COMPOUND from the tail vein.
Each blood collection (about 0.06 mL per time point) was performed from saphenous vein of each animal into pre-chilled commercial K2-EDTA tubes as anti-coagulant and placed on wet ice until centrifugation.
Plasma samples were then prepared by centrifuging the blood samples at approximately 4° C., 3200×g for 10 minutes. All plasma samples were then quickly frozen over dry ice and kept at −60° C. or lower until LC-MS/MS analysis.
Brain tissue was homogenized using homogenizing buffer (15 mM PBS (pH7.4): MeOH=2:1) at the ratio of 1:9 (1 g tissue with 9 mL buffer, the dilution ratio is 10). The tissue homogenate was kept at −60° C. or lower until LC-MS/MS analysis.
The concentrations of TEST COMPOUND in plasma and brain were determined by using an LC-MS/MS method.
The plasma and brain concentration of TEST COMPOUND in study animals was subjected to a non-compartmental pharmacokinetic analysis by using the Phoenix WinNonlin software program (version 6.3 or above, Pharsight). The linear/log trapezoidal rule was applied in obtaining the PK parameters.
Individual plasma and brain concentration values that were below the lower limit of quantitation (LLOQ) were excluded from the PK parameter calculation. The nominal dose levels and nominal sampling times were used in the calculation of all pharmacokinetic parameters.
Mouse Kp, uu=(% free in mouse brain*concentration in mouse brain)/(% free in mouse plasma*concentration in mouse plasma)
The dialysis apparatus was assembled according to the manufacturer's instruction. Each Cell was filled with 120 μL of spiked plasma sample and dialyzed against equal volume of dialysis buffer (PBS). The assay was performed in duplicate. The dialysis plates were sealed and incubated in an incubator at 37° C. with 5% CO2 and rotated at 100 rpm for 6 hours. At the end of incubation, the seals were removed and 50 μL of samples from both buffer and plasma chambers were transferred to a 96-well plate.
All calculations were carried out using Microsoft Excel. The concentrations of test compound and control compound in the buffer and plasma chambers were determined from peak area ratios (PAR) of analyte to internal standard. Protein binding (% unbound and % bound) and recovery (% recovery) of test and control compounds was calculated as follows:
• 1. Thawing of the frozen brain (stored at −80° C.) • Frozen brain tissue was thawed at room temperature in a bath. Only brain tissue was used that was thawed no more than once. • 2. Preparation of brain tissue homogenate • Brain tissue homogenate was prepared by diluting one quantity (g) of the whole brain tissue with three volumes (mL) of buffer (PBS, pH 7.4) and homogenizing the mixture using a tissue homogenizer. Brain tissue homogenate was frozen at −80° C. for later use/comparison. • 3. Preparation of working solutions • The working solutions of test compound and the control compound propranolol were prepared in dimethyl sulfoxide (DMSO) at the concentration of 200 μM. […]

[2] = molecular target: T1, wt human LRRK2, catalytic site (Homo sapiens, UniProt Q5S007); assay: TR-FRET LanthaScreen Tb Kinase Activity Assay, LRRK2 kinase inhibition; type: biochemical; conditions: 2 nM wt human LRRK2, 400 nM peptide, 38 μM ATP
T1 construct: wt human LRRK2, catalytic site, catalytic site (ThermoFisher/USA); purchased ThermoFisher
T1 sequence (Q5S007 1879-2138 limits assumed): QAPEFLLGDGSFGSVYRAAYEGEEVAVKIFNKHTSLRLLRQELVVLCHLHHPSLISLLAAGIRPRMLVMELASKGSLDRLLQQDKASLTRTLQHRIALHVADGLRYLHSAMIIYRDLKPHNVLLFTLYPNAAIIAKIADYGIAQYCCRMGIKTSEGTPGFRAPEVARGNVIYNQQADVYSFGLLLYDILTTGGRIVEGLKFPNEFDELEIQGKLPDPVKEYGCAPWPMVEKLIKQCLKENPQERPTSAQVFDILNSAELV
Method in brief: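 TR-FRET LanthaScreen format: 2 nM wt human LRRK2 catalytic domain with 400 nM fluorescein-ERM (LRRKtide) and 38 μM ATP in Kinase Buffer A, after 15 min compound preincubation. Reaction 120 min at RT, then EDTA plus Tb-anti-pLRRKtide antibody for 60 min; emission ratios analysed per kit protocol.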

SMILES | Kp uu [1] | IC50 [2]
[2H]C1([2H])OC([2H])([2H])C([2H])([2H])N(c2ccc3c(c2)-c2[nH]nc(C)c2N=C(c2c(F)cccc2F)N3)C1([2H])[2H] [Example 22, 2,2,3,3,5,5,6,6-octadeuterio-4-[5-(2,6-difluorophenyl)-3-methyl-1,6-dihydropyrazolo[4,3-d][1,3]benzodiazepin-9-yl]morpholine] | < 0.2 | < 2 nM
Cc1n[nH]c2c1N=C(c1c(F)cccc1F)Nc1c-2cc(N2CCN(CCF)C[C@H]2C)nc1C (single isomer, unassigned) [Example 18] | > 0.4 | < 2 nM
Cc1n[nH]c2c1N=C(c1c(F)cccc1F)Nc1c-2cc(N2CCO[C@@H](C)C2)nc1C [Example 40, (S)-4-(5-(2,6-difluorophenyl)-3,7-dimethyl-1,6-dihydropyrazolo[4,3-d]pyrido[4,3-f][1,3]diazepin-9-yl)-2-methylmorpholine] | < 0.2 | < 2 nM
Cc1n[nH]c2c1N=C(c1c(F)cccc1F)Nc1c-2cc(N2CCN(CCF)CC2)nc1C [Example 9, 8-(2,6-difluorophenyl)-13-[4-(2-fluoroethyl)piperazin-1-yl]-5,11-dimethyl-3,4,7,9,12-pentazatricyclo[8.4.0.02,6]tetradeca-1(10),2(6),4,7,11,13-hexaene] | > 0.4 | < 2 nM
Cc1n[nH]c2c1N=C(c1c(F)cc(F)cc1F)Nc1ccc(N3CCOCC3)cc1-2 [Example 27, 4-[3-methyl-5-(2,4,6-trifluorophenyl)-1,6-dihydropyrazolo[4,3-d][1,3]benzodiazepin-9-yl]morpholine] | 0.2 to 0.4 | 2 to 100 nM
Cc1n[nH]c2c1N=C(c1c(F)cccc1F)Nc1c-2cc(N2CC3(CCOCC3)C2)nc1C [Example 47, 2-[8-(2,6-difluorophenyl)-5,11-dimethyl-3,4,7,9,12-pentazatricyclo[8.4.0.02,6]tetradeca-1(10),2(6),4,7,11,13-hexaen-13-yl]-7-oxa-2-azaspiro[3.5]nonane] | 0.2 to 0.4 | < 2 nM
[2H]C([2H])([2H])c1n[nH]c2c1N=C(c1c(F)cccc1F)Nc1ccc(N3CCOCC3)cc1-2 [Example 33, 4-[5-(2,6-difluorophenyl)-3-(trideuteriomethyl)-1,6-dihydropyrazolo[4,3-d][1,3]benzodiazepin-9-yl]morpholine] | 0.2 to 0.4 | < 2 nM
Cc1n[nH]c2c1N=C(c1c(F)cccc1F)Nc1c-2cc(N2CCN(CC(C)(C)F)CC2)nc1C [Example 5, 5-(2,6-difluorophenyl)-9-(4-(2-fluoro-2-methylpropyl)piperazin-1-yl)-3,7-dimethyl-1,6-dihydropyrazolo[4,3-d]pyrido[4,3-f][1,3]diazepine] | > 0.4 | < 2 nM
Cc1n[nH]c2c1N=C(c1c(F)cccc1F)Nc1c-2cc(N2CCN(CC(F)F)CC2)nc1C [Example 19, 13-[4-(2,2-difluoroethyl)piperazin-1-yl]-8-(2,6-difluorophenyl)-5,11-dimethyl-3,4,7,9,12-pentazatricyclo[8.4.0.02,6]tetradeca-1(10),2(6),4,7,11,13-hexaene] | > 0.4 | < 2 nM
Cc1n[nH]c2c1N=C(c1c(F)cccc1F)Nc1cc(F)c(N3CCOCC3)cc1-2 [Example 28, 4-[5-(2,6-difluorophenyl)-8-fluoro-3-methyl-1,6-dihydropyrazolo[4,3-d][1,3]benzodiazepine-9-yl]morpholine] | > 0.4 | 2 to 100 nM
[2H]C([2H])([2H])c1n[nH]c2c1N=C(c1c(F)cccc1F)Nc1ccc(N3CCO[C@@H](C)C3)cc1-2 [Example 34, (2S)-4-[5-(2,6-difluorophenyl)-3-(trideuteriomethyl)-1,6-dihydropyrazolo[4,3-d][1,3]benzodiazepin-9-yl]-2-methyl-morpholine] | 0.2 to 0.4 | < 2 nM
Cc1n[nH]c2c1N=C(c1c(F)cccc1F)Nc1c-2cc(N2CCOCC2)nc1C [Example 8, 4-[8-(2,6-difluorophenyl)-5,11-dimethyl-3,4,7,9,12-pentazatricyclo[8.4.0.02,6]tetradeca-1(10),2(6),4,7,11,13-hexaen-13-yl]morpholine] | 0.2 to 0.4 | < 2 nM
Cc1n[nH]c2c1N=C(c1c(F)cccc1F)Nc1ccc(N3CCO[C@H](C)C3)cc1-2 [Example 7, (R)-4-(5-(2,6-difluorophenyl)-3-methyl-1,6-dihydrobenzo[d]pyrazolo[3,4-f][1,3]diazepin-9-yl)-2-methylmorpholine] | 0.2 to 0.4 | < 2 nM
Cc1n[nH]c2c1N=C(c1c(F)cccc1F)Nc1ccc(N3CCN(CCF)CC3)cc1-2 [Example 25, 5-(2,6-difluorophenyl)-9-[4-(2-fluoroethyl)piperazin-1-yl]-3-methyl-1,6-dihydropyrazolo[4,3-d][1,3]benzodiazepine] | 0.2 to 0.4 | < 2 nM
Cc1n[nH]c2c1N=C(c1c(F)cccc1F)Nc1ccc(N3CCOCC3)cc1-2 [Example 29, 4-(5-(2,6-difluorophenyl)-3-methyl-1,6-dihydrobenzo[d]pyrazolo[3,4-f][1,3]diazepin-9-yl)morpholine] | > 0.4 | < 2 nM
Cc1n[nH]c2c1N=C(c1c(F)cccc1F)Nc1ccc(-c3cnn(C(F)F)c3)cc1-2 [Example 13, 9-[1-(difluoromethyl)pyrazol-4-yl]-5-(2,6-difluorophenyl)-3-methyl-1,6-dihydropyrazolo[4,3-d][1,3]benzodiazepine] | > 0.4 | < 2 nM
Cc1n[nH]c2c1N=C(c1c(F)cccc1F)Nc1cnc(-c3ccn(C(F)F)n3)cc1-2 [Example 12, 13-[1-(difluoromethyl)pyrazol-3-yl]-8-(2,6-difluorophenyl)-5-methyl-3,4,7,9,12-pentazatricyclo[8.4.0.02,6]tetradeca-1(10),2(6),4,7,11,13-hexaene] | < 0.2 | < 2 nM
Cc1n[nH]c2c1N=C(c1c(F)cccc1F)Nc1cnc(C#CC3(C)CCOCC3)cc1-2 [Example 17, 8-(2,6-difluorophenyl)-5-methyl-13-[2-(4-methyltetrahydropyran-4-yl)ethynyl]-3,4,7,9,12-pentazatricyclo[8.4.0.02,6]tetradeca-1(10),2(6),4,7,11,13-hexaene] | 0.2 to 0.4 | < 2 nM
Cc1n[nH]c2c1N=C(c1c(F)cccc1F)Nc1c-2cc(N2CCN(CC(C)F)CC2)nc1C (racemic) [Example 20, 8-(2,6-difluorophenyl)-13-[4-(2-fluoropropyl)piperazin-1-yl]-5,11-dimethyl-3,4,7,9,12-pentazatricyclo[8.4.0.02,6]tetradeca-1(10),2(6),4,7,11,13-hexaene] | 0.2 to 0.4 | < 2 nM
Cc1n[nH]c2c1N=C(c1c(F)cccc1F)Nc1cnc(-c3cnn(C(F)F)c3)cc1-2 [Example 1, 9-(1-(difluoromethyl)-1H-pyrazol-4-yl)-5-(2,6-difluorophenyl)-3-methyl-1,6-dihydropyrazolo[4,3-d]pyrido[4,3-f][1,3]diazepine] | 0.2 to 0.4 | < 2 nM
Cn1nccc1-c1cc2c(cn1)NC(c1c(F)cccc1F)=Nc1c(Cl)n[nH]c1-2 [Example 59, 3-chloro-5-(2,6-difluorophenyl)-9-(1-methyl-1H-pyrazol-5-yl)-1,6-dihydropyrazolo[4,3-d]pyrido[4,3-f][1,3]diazepine] | < 0.2 | < 2 nM
